Earlier results as cited in patent US11439617B2, “Polymeric compositions of monomethyl fumarate and their use in treating relapsing remitting multiple sclerosis and psoriasis” (priority 2017, dated 2022).
Structures can show the parent of a compound that is named as a salt.

Conditions: in vivo

Tmax: about 2.5 hours
half-life in circulation: 36 h
SMILES: COC(=O)/C=C/C(=O)O [MMF, monomethyl fumarate]
